In patent EP0338634B1, “Viper venom polypeptides and genetic expression” (Merck & Co., Inc., priority 1988, dated 1989):
Like-named read-outs stand apart in the source and are kept apart here. Bridge positions count the residues as written; N and C are the ends. Square brackets hold non-standard residues; d marks the D form. Ends that are not written are not given here. Peptide text beside a SMILES is read from it. Met(O) = CS(=O)CC[C@H](N)C(=O)O

Target: human platelet aggregation (Homo sapiens, UniProt P05106+P08514)
Test: Platelet aggregation assay for synthetic echistatin and analogs (chronolog aggregometer)
Assay type: cell-based
Details: read-out: IC₅₀(µM)(95% CONFIDENCE LIMITS)
Protocol: Platelet aggregation was measured at 37°C in a chronolog aggregometer. The reaction mixture contained washed platelets (2 x 10⁸/ml), fibrinogen ([…]), Ca²⁺ (1 mM), and the platelet aggregation inhibitor fraction to be tested The aggregation was initiated by adding […] ADP 1 min after the other components had been added. The reaction was allowed to proceed for at least 2 min. The extent of inhibition of aggregation was expressed as the percentage of the rate of aggregation observed in the absence of inhibitor. […]
The concentration of peptide necessary to inhibit the rate of human platelet aggregation by 50% (IC₅₀) was determined using platelets from 2-4 donors. Determinations were performed in duplicate for each donor.

[1] = human platelet aggregation, Table 5

Chain of human platelet aggregation (P08514 32-1039): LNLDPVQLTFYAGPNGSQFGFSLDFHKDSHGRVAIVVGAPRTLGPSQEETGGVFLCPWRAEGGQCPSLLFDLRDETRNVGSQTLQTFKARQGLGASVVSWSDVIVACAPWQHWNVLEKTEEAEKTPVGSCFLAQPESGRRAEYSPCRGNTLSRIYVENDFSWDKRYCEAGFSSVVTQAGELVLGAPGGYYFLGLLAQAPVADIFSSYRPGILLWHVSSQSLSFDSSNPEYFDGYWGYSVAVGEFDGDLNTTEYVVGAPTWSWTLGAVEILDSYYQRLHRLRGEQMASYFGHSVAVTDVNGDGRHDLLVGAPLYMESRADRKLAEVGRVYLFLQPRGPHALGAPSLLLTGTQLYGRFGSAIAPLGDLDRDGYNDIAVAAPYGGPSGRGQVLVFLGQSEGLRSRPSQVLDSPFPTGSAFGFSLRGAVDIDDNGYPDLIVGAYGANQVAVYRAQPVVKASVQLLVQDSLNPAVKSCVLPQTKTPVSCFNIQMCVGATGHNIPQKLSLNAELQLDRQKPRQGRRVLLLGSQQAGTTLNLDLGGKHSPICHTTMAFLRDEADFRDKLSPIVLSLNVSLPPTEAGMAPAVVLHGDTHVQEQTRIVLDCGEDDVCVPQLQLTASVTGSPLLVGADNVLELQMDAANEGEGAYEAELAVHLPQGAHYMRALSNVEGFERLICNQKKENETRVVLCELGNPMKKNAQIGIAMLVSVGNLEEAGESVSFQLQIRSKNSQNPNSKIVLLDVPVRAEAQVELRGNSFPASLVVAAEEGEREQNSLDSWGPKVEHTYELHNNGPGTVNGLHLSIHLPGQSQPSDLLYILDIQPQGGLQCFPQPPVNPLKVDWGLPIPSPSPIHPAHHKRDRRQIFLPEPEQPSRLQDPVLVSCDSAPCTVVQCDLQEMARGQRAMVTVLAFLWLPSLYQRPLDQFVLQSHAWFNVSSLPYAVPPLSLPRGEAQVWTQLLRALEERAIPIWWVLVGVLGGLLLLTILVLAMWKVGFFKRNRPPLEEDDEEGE
Chain of human platelet aggregation (P05106 27-788): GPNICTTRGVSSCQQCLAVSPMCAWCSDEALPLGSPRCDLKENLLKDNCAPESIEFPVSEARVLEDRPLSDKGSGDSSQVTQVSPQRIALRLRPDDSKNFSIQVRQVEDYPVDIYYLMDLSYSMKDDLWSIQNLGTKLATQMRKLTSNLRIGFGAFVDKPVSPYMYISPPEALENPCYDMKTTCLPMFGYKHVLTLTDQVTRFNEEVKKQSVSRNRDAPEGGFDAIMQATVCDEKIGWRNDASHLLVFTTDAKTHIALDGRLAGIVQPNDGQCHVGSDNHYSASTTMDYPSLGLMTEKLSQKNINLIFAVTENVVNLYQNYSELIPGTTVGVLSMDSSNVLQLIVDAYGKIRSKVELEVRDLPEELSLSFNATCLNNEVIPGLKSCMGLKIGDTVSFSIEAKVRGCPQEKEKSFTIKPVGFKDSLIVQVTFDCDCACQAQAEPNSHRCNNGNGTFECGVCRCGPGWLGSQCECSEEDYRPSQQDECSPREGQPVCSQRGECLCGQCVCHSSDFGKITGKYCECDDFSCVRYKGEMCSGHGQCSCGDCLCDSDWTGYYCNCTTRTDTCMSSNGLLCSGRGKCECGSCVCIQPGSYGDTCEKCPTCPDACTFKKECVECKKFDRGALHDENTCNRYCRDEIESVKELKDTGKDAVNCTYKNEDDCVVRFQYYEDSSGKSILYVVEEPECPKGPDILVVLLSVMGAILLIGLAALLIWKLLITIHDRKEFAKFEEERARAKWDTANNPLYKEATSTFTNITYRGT

For “H-ECESGPCCRNCKFLKEGTICKRARGDDFDDYCNGKTCDCPRNPHKGPAT-OH (disulfide 2-11, 7-32, 8-37, 20-39) [Example 14, phe 28-echistatin]”, the IC50 [1] was 0.038 µM.
Work on `CC[C@H](C)[C@@H]1NC(=O)[C@H]([C@@H](C)O)NC(=O)CNC(=O)[C@H](CCC(=O)O)NC(=O)[C@H](CCCCN)NC(=O)[C@H](CC(C)C)NC(=O)[C@H](Cc2ccccc2)NC(=O)[C@H](CCCCN)NC(=O)[C@@H]2CSSC[C@H](NC(=O)[C@@H](N)CCC(=O)O)C(=O)N[C@@H](CCC(=O)O)C(=O)N[C@@H](CO)C(=O)NCC(=O)N3CCC[C@H]3C(=O)N[C@H]3CSSC[C@@H]4NC(=O)[C@H](Cc5ccc(O)cc5)NC(=O)[C@H](CC(=O)O)NC(=O)[C@H](CC(=O)O)NC(=O)[C@H](CC(C)C)NC(=O)[C@H](CC(=O)O)NC(=O)[C@H](CC(=O)O)NC(=O)CNC(=O)[C@H](CCCNC(=N)N)NC(=O)[C@H](C)NC(=O)[C@H](CCCNC(=N)N)NC(=O)[C@H](CCCCN)NC(=O)[C@H](CSSC[C@@H](C(=O)N5CCC[C@H]5C(=O)N[C@@H](CCCNC(=N)N)C(=O)N[C@@H](CC(N)=O)C(=O)N5CCC[C@H]5C(=O)N[C@@H](Cc5c[nH]cn5)C(=O)N[C@@H](CCCCN)C(=O)NCC(=O)N5CCC[C@H]5C(=O)N[C@@H](C)C(=O)N[C@H](C(=O)O)[C@@H](C)O)NC(=O)[C@H](CC(=O)O)NC(=O)[C@H](CSSC[C@H](NC3=O)C(=O)N[C@@H](CCCNC(=N)N)C(=O)N[C@@H](CC(N)=O)C(=O)N2)NC(=O)[C@H]([C@@H](C)O)NC(=O)[C@H](CCCCN)NC(=O)CNC(=O)[C@H](CC(N)=O)NC4=O)NC1=O` [Example 13, leu 28-echistatin] yielded an IC50 [1] of 0.034 µM.
For “H-ECESGPCCRNCKFLKEGTICKRARGDDMDDYCNGKTCDCPRNPHKGPAT-OH (disulfide 2-11, 7-32, 8-37, 20-39) [Synthetic Echistatin, echistatin]”, the IC50 (rate of human platelet aggregation, platelets from 2-4 donors, duplicate, Table 4) was 0.033 µM.
In the case of “H-ECESGPCCRNCKFLKEGTICKNARGDFLDDYCNGKTCDCPRNPHKGPAT-OH (disulfide 2-11, 7-32, 8-37, 20-39) [Example 15, asn 22, phe 27, leu 28-echistatin]”, the IC50 [1] is reported as 0.038 µM.
“H-ECESGPCCRNCKFLKEGTICKRARGDFLDDYCNGKTCDCPRNPHKGPAT-OH (disulfide 2-11, 7-32, 8-37, 20-39) [Example 10, phe 27, leu 28-echistatin]” showed an IC50 [1] of 0.016 µM.
`CC[C@H](C)[C@@H]1NC(=O)[C@H]([C@@H](C)O)NC(=O)CNC(=O)[C@H](CCC(=O)O)NC(=O)[C@H](CCCCN)NC(=O)[C@H](CC(C)C)NC(=O)[C@H](Cc2ccccc2)NC(=O)[C@H](CCCCN)NC(=O)[C@@H]2CSSC[C@H](NC(=O)[C@@H](N)CCC(=O)O)C(=O)N[C@@H](CCC(=O)O)C(=O)N[C@@H](CO)C(=O)NCC(=O)N3CCC[C@H]3C(=O)N[C@H]3CSSC[C@@H]4NC(=O)[C@H](Cc5ccc(O)cc5)NC(=O)[C@H](CC(=O)O)NC(=O)[C@H](CC(=O)O)NC(=O)[C@H](CCSC)NC(=O)[C@H](CC(=O)O)NC(=O)[C@H](CC(=O)O)NC(=O)CNC(=O)[C@H](CCCNC(=N)N)NC(=O)[C@H](C)NC(=O)[C@H](CCCNC(=N)N)NC(=O)[C@H](CCCCN)NC(=O)[C@H](CSSC[C@@H](C(=O)O)NC(=O)[C@H](CC(=O)O)NC(=O)[C@H](CSSC[C@H](NC3=O)C(=O)N[C@@H](CCCNC(=N)N)C(=O)N[C@@H](CC(N)=O)C(=O)N2)NC(=O)[C@H]([C@@H](C)O)NC(=O)[C@H](CCCCN)NC(=O)CNC(=O)[C@H](CC(N)=O)NC4=O)NC1=O` [Example 20, (1-39)-echistatin] (H-ECESGPCCRNCKFLKEGTICKRARGDDMDDYCNGKTCDC-OH; disulfide 2-11, 7-32, 8-37, 20-39) was tested, and the IC50 [1] was 0.8 µM.
With “H-ECESGPCCRNCKFLKEGTICKRARGDDMDDYCNGKTCDCPRNP-NH2 (disulfide 2-11, 7-32, 8-37, 20-39) [Example 17, (1-43)-echistatin amide]” the IC50 [1] was 0.081 µM.
“H-ECESGPCCRNCKFLKEGTICKRARGDWMDDYCNGKTCDCPRNPHKGPAT-OH (disulfide 2-11, 7-32, 8-37, 20-39) [Example 11, trp 27-echistatin]” showed an IC50 [1] of 0.017 µM.
For “H-ECESGPCCRNCKFLKEGTICKRARGDDMDDYCNGKTCDCPR-NH2 (disulfide 2-11, 7-32, 8-37, 20-39) [Example 16, (1-41)-echistatin amide]”, the IC50 [1] was 0.066 µM.
Work on “H-ECESGPCCRNCKFLKEGTICKRPRGDFLDDYCNGKTCDCPRNPHKGPAT-OH (disulfide 2-11, 7-32, 8-37, 20-39) [Example 12, pro 23, phe 27, leu 28-echistatin]” yielded an IC50 [1] of 0.026 µM.
Work on `CC[C@H](C)[C@@H]1NC(=O)[C@H]([C@@H](C)O)NC(=O)CNC(=O)[C@H](CCC(=O)O)NC(=O)[C@H](CCCCN)NC(=O)[C@H](CC(C)C)NC(=O)[C@H](Cc2ccccc2)NC(=O)[C@H](CCCCN)NC(=O)[C@@H]2CSSC[C@H](NC(=O)[C@@H](N)CCC(=O)O)C(=O)N[C@@H](CCC(=O)O)C(=O)N[C@@H](CO)C(=O)NCC(=O)N3CCC[C@H]3C(=O)N[C@H]3CSSC[C@@H]4NC(=O)[C@H](Cc5ccc(O)cc5)NC(=O)[C@H](CC(=O)O)NC(=O)[C@H](CC(=O)O)NC(=O)[C@H](CCSC)NC(=O)[C@H](CC(=O)O)NC(=O)[C@H](CC(=O)O)NC(=O)CNC(=O)[C@H](CCCNC(=N)N)NC(=O)[C@H](C)NC(=O)[C@H](CCCNC(=N)N)NC(=O)[C@H](CCCCN)NC(=O)[C@H](CSSC[C@@H](C(N)=O)NC(=O)[C@H](CC(=O)O)NC(=O)[C@H](CSSC[C@H](NC3=O)C(=O)N[C@@H](CCCNC(=N)N)C(=O)N[C@@H](CC(N)=O)C(=O)N2)NC(=O)[C@H]([C@@H](C)O)NC(=O)[C@H](CCCCN)NC(=O)CNC(=O)[C@H](CC(N)=O)NC4=O)NC1=O` [Example 19, (1-39)-echistatin amide] (H-ECESGPCCRNCKFLKEGTICKRARGDDMDDYCNGKTCDC-NH2; disulfide 2-11, 7-32, 8-37, 20-39) yielded an IC50 [1] of 0.327 µM.
“H-ECESGPCCRNCKFLKEGTICKRARGDFMDDYCNGKTCDCPRNPHKGPAT-OH (disulfide 2-11, 7-32, 8-37, 20-39) [Example 9, phe 27-echistatin]” was tested, and the IC50 [1] was 0.013 µM.
“ECESGPCCRNCKFLKEGTICKRARGDD[Met(O)]DDYCNGKTCDCPRNPHKGPAT (disulfide 2-11, 7-32, 8-37, 20-39) [Example 18, met SO 28-echistatin]” gave an IC50 [1] of 0.088 µM.
